According to paper PMC3231940, “Disposition, metabolism and mass balance of [^14C]apremilast following oral administration” (Xenobiotica; the Fate of Foreign Compounds in Biological …, 2011):
Where “and” joins values, the source holds several entries; their conditions need not be identical. Equal values may be shown once.

Experiment: Metabolite profiling by HPLC radiochromatography in plasma, urine and faeces
Assay type: in vivo, human
Method: Individual plasma samples collected from all subjects at 0.5, 1, 2.5, 8, 24, 36 and 48 h post-dose were analysed for metabolite profiling. A pooled sample (equal volume from 0.5,1,2.5,8 and 24 h) from subject 1 was also used for metabolite profiling. Three volumes of acetonitrile were added to each sample, followed by mixing and centrifu-gation. The supernatant was removed and the pellet was washed twice with acetonitrile. The combined superna-tants were evaporated to dryness under a stream of nitrogen. The residues were re-suspended in acetonitrile: 1% formic acid in water (1:1), assayed for extraction recovery and analysed for metabolite profiling.
For each subject, urine samples were pooled using an equal percentage by volume of the 0-4, 4-8, 8-12 and 12-24-h samples. The 24-48-h urine sample from each subject and a pool of the 0-168-h urine samples from subject 1 were also analysed for metabolite profiling. Samples were mixed and centrifuged prior to the supernatants being transferred to fresh tubes for metabolite profiling analysis.
Faecal homogenates for metabolite profiling were pooled using an equal percentage by weight to generate two pools (0-48 h and 48-96 h) for each subject. An additional pool (0-168 h) was prepared using the samples collected from subject 1. An aliquot (approximately 6 g) of each pool was extracted with three volumes of acetonitrile; samples were mixed and centrifuged. The supernatant was removed and the pellets were extracted twice with an additional 12 mL of acetonitrile each time. The combined supernatants were evaporated to dryness under a stream of nitrogen and the residue was re-suspended in a small volume (approximately 400 μL) of acetonitrile: 1% formic acid in water (1:1). Samples were assayed for extraction recovery prior to metabolite profiling.
HPLC analysis for metabolite profiling was performed using a Shimadzu LC-10ADVP (Shimadzu Corp., Columbia, MD) or a Waters 2695 Alliance Separation Module (Waters Corp., Milford, MA) with the autosampler set to an ambient temperature of approximately 22°C. ASPD-10A VPUV-Vis Detector or a Waters 996 Photodiode array detector set to 254 nm was used to detect UV absorbance. [^14C]Apremilast and metabolites were separated using a Phenomenex Luna C 18(2) column (150 × 4.6 mm, 3 μm; Phenomenex, Torrance, CA) equipped with a RP-18 guard column (15×3.2 mm, 7 μm) or using an ACE 3 C18 column (150 × 4.6 mm, 3 μm; Advanced Chromatography Technologies, Aberdeen, Scotland) equipped with an ACE 3 guard column (10×3mm, 3 μm). The mobile phases used were 0.4% formic acid in water; pH 3.2 with ammonium hydroxide (mobile phase A) and acetonitrile (mobile phase B). The column temperature was 30°C and the flow rate was 0.7mL/min. The linear gradient was delivered as follows: 0-5 min to 100% A; 5-20 min to 85% A; 20-30 min hold at 85% A; 30-50 min to 65% A; 50-60 min to 60% A; 60-70 min to 50% A; 70-75 min to 0% A; hold at 0% A until 80 min; return to initial conditions over 2 min.
Radioactivity profiles for excreta were determined by radiochromatography using liquid chromatography-accurate radioisotope counting stop-flow system (LC-ARC; AIM Research Company, Wilmington, DE). Radioactivity was detected using a β-Ram Radioflow detector (IN/US Systems, Brandon, FL) equipped with a 1300-μL liquid cell. Liquid scintillation cocktail and column eluate were mixed at a ratio of 2.5:1. Radioactive peaks were quantified using LC-ARC data handling software. Plasma radioactivity profiles were determined by collecting the column eluate into 96-well Deepwell LumaPlates at a rate of 0.25 min/fraction. The plates were dried and the radioactivity in each well determined using a PerkinElmer TopCount NXT Microplate Scintillation Counter. HPLC radiochromatograms were reconstructed using LC-ARC data handling software.
Pharmacokinetic data were generated by non-compartmental analysis of plasma or whole blood versus time profiles using WinNonlin (version 4.1, Enterprise Edition). […]

[1] = radiochromatography, single oral 20-mg dose, mean ± SD

Plasma (% AUC relative to TRA); share of circulating radioactivity (AUC0-t (unchanged drug or metabolite)/AUC0-48 (TRA) * 100%): 45% and 44.8%
Plasma exposure (AUC) relative to total radioactivity (based on radiochromatography): approximately 40%
% of dose excreted, faeces (faeces collected up to 96-h post-dose): 4 % of dose and 4.1 % of dose
half-life (human, plasma, radiochromatography, single oral 20-mg dose, mean ± SD, read-out: Plasma t½ (converted)): 7.1 ± 2.7 h
Tmax (male, human, plasma, radiochromatography, single oral 20-mg dose, median and range): 1.8 h
Plasma Cmax (plasma radioactivity concentrations and radiochromatography, single oral 20-mg dose, mean ± SD): 321±134 ngEq/mL
Plasma AUC0-t [1]: 2455±690 ngEq*h/mL
Plasma AUC0-∞ [1]: 2636±705 ngEq*h/mL
% of dose excreted, urine (urine collected up to 48-h post-dose): 2.8 % of dose
SMILES: CCOc1cc([C@@H](CS(C)(=O)=O)N2C(=O)c3cccc(NC(C)=O)c3C2=O)ccc1OC [Apremilast, (+)-N-[2-[(lS)-1-(3-ethoxy-4-methoxyphenyl)-2-(methylsulfonyl)ethyl]-1,3-dioxo-2,3-dihydro-lH-isoindol-4-yl]acetamide]
